Patent US20240246934A1, “QUINAZOLINE-BASED COMPOUND, COMPOSITION, AND APPLICATION OF QUINAZOLINE-BASED COMPOUND” (BEIJING SCITECH-MQ PHARMACEUTICALS LIMITED, priority 2021, published 2024)
Read-outs that look alike come from different tables or passages of the source.

Tests used:
[1] = test system: NCI-N87 cells; assay: Inhibition of cell proliferation, CTG method, NCI-N87; assay type: cell-based; settings: Homo sapiens, 72 hours, read-out: hNCI-N87 IC50
Excerpt: (§1) The present application examined the in vitro anti-proliferative activity of the compounds of the present disclosure against in vitro cultured BT474, NCI-N87, Ba/F3-EGFR-VIII and Ba/F3 HER2 A775_G776insYVMA and Ba/F3 EGFR D770_N771insSVD cell lines by CTG method.
(§2) Reagents and consumables: RPMI1640 (ThermoFisher, Cat. No. C11875500BT); fetal bovine serum (Hyclone, Cat. No. SV30087.03); 0.25% trypsin-EDTA (ThermoFisher, Cat. No. 25200-072); penicillin-streptomycin (Hyclone, Cat. No. SV30010); DMSO (Amresco, Cat. No. 0231-500ML); CTG assay kit (Promega, Cat. No. G924C); 96-well plate (Corning, Cat. No. 3603); multifunctional plate reader (Perkin Elmer, Cat. No. Envision)
(§3) Cell lines: BT474 (from the cell bank of Chinese Academy of Sciences), NCI-N87 (from ATCC), Ba/F3-EGFR-VIII, Ba/F3 HER2 A775_G776insYVMA and Ba/F3 EGFR D770_N771insSVD (all from KYinno Biotechnology (Beijing) Co., Ltd.); all of the above cells were cultured with RPMI1640 medium containing 10% fetal bovine serum, 100 U/mL penicillin, and 100 μg/mL streptomycin in the culture process.
1. The assay compound was dissolved with DMSO to form a stock solution and a gradient dilution was performed, followed by dilution with the corresponding medium to obtain a solution with 5-fold working concentration.
2. Cells in logarithmic growth phase were adjusted to specific cell densities by dilution with culture medium, and 80 μL of cell suspension was added to a 96-well plate, such that plating densities of cells of BT474, NCI-N87, Ba/F3-EGFR-VIII, Ba/F3 HER2 A775_G776insYVMA and Ba/F3 EGFR D770_N771insSVD were all 3000 cells/well. The cells of Ba/F3-EGFR-VIII, Ba/F3 HER2 A775_G776insYVMA and Ba/F3 EGFR D770_N771insSVD were used directly in the next step (treatment with compound), whereas the BT474 and NCI-N87 needed to be cultured overnight in a 37° C., 5% carbon dioxide gas incubator to adhere to the wall, and then treated with compounds.
3. 20 μL of compound solution was added to each well of the 96-well plate that had been inoculated with cells. The highest concentration of the assayed compound was 10 μM, 4-fold serial dilution, a total of 9 concentrations, and duplicate wells. A control group without compound was also set up.
(§4) 4. The cells were cultured for another 72 hours, and then cell viability was detected by CTG assay kit. Signal values were read with a multifunctional plate reader (Perkin Elmer). GraphPad Prism software was used to create a dose-response curve and IC50 was calculated.

[2] = test system: BT474 cells; assay: Inhibition of cell proliferation, CTG method, BT474; assay type: cell-based; settings: Homo sapiens, BT-474, 72 hours, read-out: hBT474 IC50
Excerpt: as §1, §2, §3
1. […]
as §4

[3] = Brain tissue and whole blood concentration in SD rats after oral administration; assay type: in vivo; settings: rat, PO 10 mg/kg, 2 h after administration
Method: In this assay, the pharmacokinetic characteristics of the compounds of the present application were assayed after administration of some of the compounds of the present application to SD rats by single oral administration and intravenous injection.
2. […] The mixture was stirred, vortexed and/or sonicated. Once a solution was obtained, the vehicle was gradually added to a final volume to reach the target concentration. The solution was vortexed, and sonicated to obtain a homogeneous solution.
Meanwhile, the IV group was not fasted and the PO group was fasted overnight (>12 hrs) and given food 2 hrs after drug administration. All animals had free access to water. The dosing regimen and pharmacokinetic sampling regimen are given in Table 6 and Table 7 below, respectively.
Rats were administered according to the above regimen, and blood and brain tissue samples were collected and processed at predetermined time points (collection and processing were performed according to conventional methods in the art).
The supernatant was diluted 2-fold with ultra-pure water, and the samples were analyzed by LC/MS.
Brain tissues were weighed and homogenized by adding 4-fold homogenizing solution (acetonitrile/water=1/1 v/v). […] The supernatant was diluted 2-fold with ultra-pure water, and the samples were analyzed by LC/MS.

IC50 [2] [nM] | concentration at 2 h ([3]; whole blood, read-out: Blood drug concentration) [ng/mL] | Kp at 2 h ([3]; brain / whole blood, read-out: Brain tissue/blood ratio) | concentration at 2 h ([3]; brain, NA: Exposure was too low to be counted, read-out: Brain tissue concentration) [ng/g] | SMILES | IC50 [1] [nM]
5 to 10 |  |  |  | COc1c(NC(=O)/C=C/[C@H]2CCCN2C)ccc2ncnc(Nc3ccc(OCc4ccccn4)c(Cl)c3)c12 [Example 4, (R,E)-N-(4-((3-chloro-4-(pyridin-2-ylmethoxy)phenyl)amino)-5-methoxyquinazolin-6-yl)-3-(1-methylpyrrolidin-2-yl)acrylamide] | < 1
 | 121 | 0.36 | 43.5 | CCN1CCC[C@@H]1/C=C/C(=O)Nc1ccc2ncnc(Nc3ccc(OCc4ccccn4)c(Cl)c3)c2c1OC [Example 29, (R,E)-N-(4-((3-chloro-4-(pyridin-2-ylmethoxy)phenyl)amino)-5-methoxyquinazolin-6-yl)-3-(1-ethylpyrrolidin-2-yl)acrylamide] | 
